The values that follow are results of earlier work, collected in patent US20230149366A1, “SOLID DOSAGE FORMS OF TAFAMIDIS” (Nuray Chemicals Private Limited, priority 2021, published 2023).

The conditions of the series: Vyndaqel European Public assessment report.

Structures are written as SMILES.

On to `O=C(O)c1ccc2nc(-c3cc(Cl)cc(Cl)c3)oc2c1` [tafamidis, 2-(3,5-dichlorophenyl)-1,3-benzoxazole-6-carboxylic acid], for which the “Solubility in vehicles commonly used in formulating soft gelatin capsules” value is “poor solubility”. For the same molecule, where the note is “upon contact with aqueous vehicles”, the “Gel formation in hard gelatin capsule with standard excipients” value is listed as “formed a rigid gel structure”.
